The structures appear in SMILES notation.

In general, IC50 refers to the midpoint of a concentration-inhibition curve. Low values mean greater potency, high ones weaker potency.

In this experiment the target is T1, human sodium-dependent glucose transporter 2 (SGLT2, SLC5A2) (Homo sapiens, UniProt P31639).
T1 construct: Bases 21 to 2039 correspond to the complete coding region of human SGLT2; expressed in transfected cells
T1 sequence (P31639 1-672): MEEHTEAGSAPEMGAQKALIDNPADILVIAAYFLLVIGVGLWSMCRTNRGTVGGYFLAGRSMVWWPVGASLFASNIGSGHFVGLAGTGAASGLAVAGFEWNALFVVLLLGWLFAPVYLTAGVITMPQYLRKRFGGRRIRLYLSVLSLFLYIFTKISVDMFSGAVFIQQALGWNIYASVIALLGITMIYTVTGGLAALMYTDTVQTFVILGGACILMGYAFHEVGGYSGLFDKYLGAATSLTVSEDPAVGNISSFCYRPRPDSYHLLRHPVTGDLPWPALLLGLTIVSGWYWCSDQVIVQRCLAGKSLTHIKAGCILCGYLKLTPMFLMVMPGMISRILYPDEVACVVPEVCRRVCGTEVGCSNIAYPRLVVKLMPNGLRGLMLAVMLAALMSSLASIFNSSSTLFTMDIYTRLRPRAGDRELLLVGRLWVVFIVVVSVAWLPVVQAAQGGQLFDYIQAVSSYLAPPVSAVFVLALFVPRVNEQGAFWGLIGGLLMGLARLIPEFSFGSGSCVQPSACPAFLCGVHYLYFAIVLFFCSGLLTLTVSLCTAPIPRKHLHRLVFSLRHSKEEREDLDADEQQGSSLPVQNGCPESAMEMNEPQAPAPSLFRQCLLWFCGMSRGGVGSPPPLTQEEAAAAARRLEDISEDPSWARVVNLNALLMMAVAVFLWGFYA
In words: Inhibition of the transport activity of human SGLT2 in vitro (α-MDG uptake in CHO-TRex-hSGLT2 cells). Type of experiment: cell-based. Particulars: 50 μM α-MDG, 120 min at 37° C. The text has this: Inhibition of the Transport Activity of the Human Sodium-Dependent Glucose Transporter 2 (SGLT2, SLC5A2) In Vitro
1. Cloning of an Expression Vector for Human SGLT2
The cDNA for human SGLT2 was introduced into the pcDNA4/TO vector (Invitrogen) by means of standard methods of molecular biology as described in Sambrook et al. (Molecular Cloning, A Laboratory Manual, Second Edition). […] Bases 21 to 2039 correspond to the complete coding region of human SGLT2.
2. Production of a Recombinant Cell Line with Inducible Expression of Human SGLT2
The expression vector for human SGLT2 was introduced into CHO-TREx cells (Invitrogen) by means of FuGene6 lipofection (Roche). To select single cell clones, 600 μg/ml of Zeocin (Invitrogen) was added to the cell culture medium (nutrient mixture F-12 (Ham), (Invitrogen) supplemented with 10% fetal calf serum (FBS Gold, PAA), 10 μg/ml Blasticidin S(CN Biosciences), 100 units/ml penicillin, 100 units/ml streptomycin). The functionality of the single cell clones resulting from the selection was tested via their uptake activity for radiolabeled methyl-α-D-glucopyranoside. That cell clone with the highest uptake activity for methyl-α-D-glucopyranoside, referred to hereinafter as CHO-TRex-hSGLT2, was selected for the further experiments and cultured further in the presence of 600 μg/ml Zeocin.
3. Measurement of the Inhibiting Action of Test Substances on the Uptake of methyl-α-D-glucopyranoside (α-MDG)
CHO-TRex-hSGLT2 cells were seeded in cell culture medium in a concentration of 50 000 cells per well in Cytostar-T scintillating 96-well plates (Amersham Biosciences) and cultivated for 24 h. The expression of the recombinant human SGLT2 was induced by adding 1 μg/ml tetrazykline for a further 24 h. For α-MDG uptake experiments, the cells were washed with PBS and then starved at 37° C. in starvation medium (PBS supplemented with 10% fetal calf serum) for 1 hour. After a further washing step with transport assay buffer (140 mM sodium chloride, 2 mm potassium chloride, 1 mm magnesium chloride, 1 mm calcium chloride, 10 mm HEPES/Tris, pH 7.5), the cells were incubated at room temperature either in the absence or presence of test substances of different concentration for 15 min. The test substances were diluted correspondingly in transport assay buffer proceeding from a 10 mm stock solution in dimethyl sulfoxide (40 μl/well). The assay was subsequently started by adding 10 μl/well of a mixture of radiolabeled methyl-α-D-[U-^14C]glucopyranoside (Amersham) and unlabeled methyl-α-D-glucopyranoside (Acros). The final concentration of methyl-α-D-glucopyranoside in the assay was 50 μM. After an incubation time of 120 min at 37° C., the reaction was stopped by adding 50 μl/well of 10 mM methyl-α-D-glucopyranoside in transport assay buffer (4° C.), and the radioactivity taken up into the cells was determined in a MicroBeta Scintillation Microplate Reader (Wallac).
The half-maximum inhibiting action of the test substances (IC50 value) was determined as follows: • 1. Determination of the value for 0% inhibition. This is the measurement in the absence of substance, measured in sodium-containing transport assay buffer. • 2. Determination of the value for 100% inhibition. This is the measurement in the absence of substance, measured in sodium-free transport assay buffer (140 mM choline chloride, 2 mM potassium chloride, 1 mM magnesium chloride, 1 mM calcium chloride, 10 mM HEPES/Tris, pH7.5). • 3. Calculation of the percentage inhibition values of those measurements which were carried out in the presence of different concentrations of test substance. From this, it was then possible to determine that concentration of the test substance which reduces the uptake of the methyl-α-D-glucopyranoside by 50% (IC50 value).
In the case of `CCOC(=O)OCC1OC(c2ccc(Cl)c(Cc3ccc(OCC)cc3)c2)C(O)C(O)C1F` (centres unmarked) [Example 16], the IC50 stood at 2700 nM. The same measure for `COc1ccc(Cc2cc(C3OC(CO)C(F)(F)C(O)C3O)ccc2Cl)nc1` (centres unmarked) [Example 38]: 393 nM. The same measure for `CCOc1ccc(Cc2cc(C3OC(CO)C(F)(F)C(O)C3O)ccc2Cl)cc1` (centres unmarked) [Example 2]: 18 nM; for `CC(C)Oc1ccc(Cc2cc([C@@H]3O[C@H](CO)C(F)(F)[C@H](O)[C@H]3O)ccc2Cl)cc1` [Example 31]: 42 nM; for `CCOC(=O)OC[C@H]1O[C@@H](c2ccc(OC(F)(F)F)c(Cc3ccc(OC)cc3)c2)[C@H](O)[C@@H](O)C1(F)F` [Example 41]: 12800 nM. In turn, `COc1ccc(Cc2cc(C3OC(CO)C(F)C(O)C3O)ccc2Br)cc1` (centres unmarked) [Example 56] gave an IC50 of 9.4 nM. `OCC1OC(c2ccc(Cl)c(Cc3ccc(OC(F)(F)F)cc3)c2)C(O)C(O)C1F` (centres unmarked) [Example 25] gave an IC50 of 41 nM. The figure for `COc1ccc(Cc2cc([C@@H]3O[C@H](CO)[C@@H](F)[C@H](O)[C@H]3O)ccc2OC(F)(F)F)cc1` [Example 40] is 412 nM; for `COc1ccc(Cc2cc(C3OC(CO)C(F)(F)C(O)C3O)ccc2F)cc1` (centres unmarked) [Example 11] it is 54 nM. The figure for `COc1ccc(Cc2cc([C@@H]3O[C@H](CO)C(F)(F)[C@H](O)[C@H]3O)ccc2OC(F)(F)F)cc1` [Example 42] is 982 nM.

In turn, `OC[C@H]1O[C@@H](c2ccc(Cl)c(Cc3ccc(Cl)cc3)c2)[C@H](O)[C@@H](O)[C@@H]1F` [Example 44] showed an IC50 of 24 nM.

As to `CCc1ccc(Cc2cc(C3OC(CO)C(F)C(O)C3O)ccc2C)cc1` (centres unmarked) [Example 61], the IC50 came out at 10 nM. The figure for `CCOC(=O)OCC1OC(c2ccc(Cl)c(Cc3ccc(OCC)cc3)c2)C(O)C(O)C1(F)F` (centres unmarked) [Example 18] is 897 nM.

Molecule `CCOC(=O)OCC1OC(c2ccc(Cl)c(Cc3ccc(OC(F)(F)F)cc3)c2)C(O)C(O)C1(F)F` (centres unmarked) [Example 26] gave a half-maximal inhibitory concentration (IC50) above 10000 nM.

On to `COc1ccc(Cc2cc(C3OC(CO)C(F)C(O)C3O)ccc2OC)cc1` (centres unmarked) [Example 13], for which half-maximal inhibition (IC50) was put at 31 nM. The same measure for `COc1ccc(Cc2cc(C3OC(CO)C(F)(F)C(O)C3O)ccc2C)cc1` (centres unmarked) [Example 34]: 27 nM; for `CCOC(=O)OCC1OC(c2ccc(OC)c(Cc3ccc(OC)cc3)c2)C(O)C(O)C1F` (centres unmarked) [Example 12]: 2700 nM; for `COc1ccc(Cc2cc(C3OC(CO)C(F)(F)C(O)C3O)ccc2Cl)cc1` (centres unmarked) [Example 22]: 9 nM. The figure for `CCOC(=O)OCC1OC(c2ccc(Cl)c(Cc3ccc(OC)cc3)c2)C(O)C(O)C1(F)F` (centres unmarked) [Example 21] is 339 nM; for `OC[C@H]1O[C@@H](c2ccc(Cl)c(Cc3ccc(O)cc3)c2)[C@H](O)[C@@H](O)C1(F)F` [Example 30] it is 15 nM; for `CCc1ccc(Cc2cc(C3OC(CO)C(F)C(O)C3O)ccc2Cl)s1` (centres unmarked) [Example 6] it is 12 nM.

Molecule `COc1ccc(Cc2cc(C3OC(CO)C(F)C(O)C3O)ccc2F)cc1` (centres unmarked) [Example 9] had an IC50 of 32 nM. The molecule `COc1ccc(Cc2cc([C@@H]3O[C@H](CO)C(F)(F)[C@H](O)[C@H]3O)ccc2C(F)(F)F)cc1` [Example 50] had an IC50 of 154 nM.

`CCOC(=O)OC[C@H]1O[C@@H](c2ccc(OC(F)(F)F)c(Cc3ccc(OC)cc3)c2)[C@H](O)[C@@H](O)[C@@H]1F` [Example 39] showed an IC50 of 19800 nM. The figure for `OCC1OC(c2ccc(Cl)c(Cc3ccc(OC(F)(F)F)cc3)c2)C(O)C(O)C1(F)F` (centres unmarked) [Example 27] is 199 nM; for `COc1ccc(Cc2cc(C3OC(CO)C(F)(F)C(O)C3O)ccc2OC)cc1` (centres unmarked) [Example 15] it is 80 nM; for `CCc1ccc(Cc2cc(C3OC(CO)C(F)C(O)C3O)ccc2Cl)cc1` (centres unmarked) [Example 3] it is 8 nM. The same measure for `COc1ccc(Cc2cccc(C3OC(CO)C(F)C(O)C3O)c2)cc1` (centres unmarked) [Example 5]: 5 nM; for `CCc1ccc(Cc2cc(C3OC(CO)C(F)(F)C(O)C3O)ccc2Cl)cc1` (centres unmarked) [Example 1]: 12 nM. `CCOc1ccc(Cc2cc(C3OC(CO)C(F)C(O)C3O)ccc2Cl)cc1` (centres unmarked) [Example 17] showed an IC50 of 10 nM. The figure for `CCOC(=O)OCC1OC(c2ccc(Cl)c(Cc3ccc(OC)cn3)c2)C(O)C(O)C1F` (centres unmarked) [Example 35] is 12600 nM; for `CCOC(=O)OCC1OC(c2ccc(Cl)c(Cc3ccc(OC)cn3)c2)C(O)C(O)C1(F)F` (centres unmarked) [Example 37] it is 11200 nM; for `COc1ccc(Cc2cc(C3OC(CO)C(F)C(O)C3O)ccc2Cl)nc1` (centres unmarked) [Example 36] it is 304 nM. The same measure for `CCOC(=O)OCC1OC(c2ccc(Cl)c(Cc3ccc(OC(F)(F)F)cc3)c2)C(O)C(O)C1F` (centres unmarked) [Example 24]: 976 nM; for `COc1ccc(Cc2cc([C@@H]3O[C@H](CO)[C@@H](F)[C@H](O)[C@H]3O)ccc2C(F)(F)F)cc1` [Example 48]: 74 nM.

The molecule `Cc1ccc(C2OC(CO)C(F)(F)C(O)C2O)cc1Cc1ccc(O)cc1` (centres unmarked) [Example 33] displayed an IC50 of 38 nM. The same measure for `OC[C@H]1O[C@@H](c2ccc(Cl)c(Cc3ccc(Cl)cc3)c2)[C@H](O)[C@@H](O)C1(F)F` [Example 46]: 75 nM; for `CCOC(=O)OC[C@H]1O[C@@H](c2ccc(C(F)(F)F)c(Cc3ccc(OC)cc3)c2)[C@H](O)[C@@H](O)C1(F)F` [Example 49]: 8000 nM; for `CCOC(=O)OCC1OC(c2ccc(F)c(Cc3ccc(OC)cc3)c2)C(O)C(O)C1F` (centres unmarked) [Example 8]: 1400 nM. The same measure for `OCC1OC(c2ccc(Cl)c(Cc3cc4ccccc4s3)c2)C(O)C(O)C1F` (centres unmarked) [Example 7]: 15 nM; for `CCOC(=O)OCC1OC(c2ccc(F)c(Cc3ccc(OC)cc3)c2)C(O)C(O)C1(F)F` (centres unmarked) [Example 10]: 1400 nM.
